This assay relates to RS411 cells. The assay can be described thus: Cell Viability CTG Assay (CellTiter Glo) in RS411 cells. The assay is classed as cell-based. The settings on record: Homo sapiens, RS4-11, 24 h, duration 1 day. On the procedure:
Example 23. Cell Viability CTG Assay
Day 0: Compounds or DMSO 60 nL were stamped to the cell plate as the platemap. RS411 cells were centrifuged at 800 rpm for 5 min, suspended with culture medium, and counted with Countess (Invitrogen). The cell density was adjusted to the recommend information. 30 μL of cell solution (1000 cells/well) was added to the assay plate as the platemap and 30 uL of media was added to column 2 and column 23 as the platemap. The plate was spun down briefly. The final concentration of the compounds started at 10 μM (3 fold dilution and 11 doses) and final DMSO concentration was 0.2%. The plate was spun down briefly and incubated at 37° C., 5% CO2 for 1-4 days.
30 μL CellTiter Glo reagent was added to each well and the plate was centrifuged at 1000 rpm for 30 sec. The plate was shaken for 1 min and centrifuged at 1000 rpm for 30 sec. The plate was incubated at RT for 10 min to stabilize the luminescent signal and the luminescence was read by EnVision.
The letter codes for IC50 indicate the concentration of compound required to affect 50% of cells: A (<0.05 μM), B (0.05-0.1 μM), C (0.1-0.5 μM), D (0.5-1.0 μM), and E (>1.0 μM).
Background: ATP-based viability assays read luminescence as a measure of living cells.
Broadly, the IC50 is the concentration needed to halve the response being measured. A low value points to greater potency. `Cn1c(=O)n(C2CCC(=O)NC2=O)c2cccc(OC3CC4(CCN(C(=O)c5ccc(NC(=O)[C@@H]6NC7(CCCCC7)[C@@]7(C(=O)Nc8cc(Cl)ccc87)[C@H]6c6cccc(Cl)c6F)cc5)CC4)C3)c21` (stereo partly shown) [I-44] returned an IC50 of under 50 nM. To `CN(C(=O)c1ccc(NC(=O)[C@@H]2NC3(CCCCC3)[C@@]3(C(=O)Nc4cc(Cl)ccc43)[C@H]2c2cccc(Cl)c2F)cc1)C1CCC2(CC1)CC(Cc1cccc3c1n(C)c(=O)n3C1CCC(=O)NC1=O)C2` (stereo partly shown) [I-45] belongs 100 to 500 nM. `Cn1c(=O)n(C2CCC(=O)NC2=O)c2cccc(C#CCNC(=O)c3ccc(NC(=O)[C@@H]4NC5(CCCCC5)[C@@]5(C(=O)Nc6cc(Cl)ccc65)[C@H]4c4cccc(Cl)c4F)cc3)c21` (stereo partly shown) [I-46] returned an IC50 of under 50 nM. On to `Cn1c(=O)n(C2CCC(=O)NC2=O)c2cccc(C#C[C@@H]3CN(C(=O)c4ccc(NC(=O)[C@@H]5NC6(CCCCC6)[C@@]6(C(=O)Nc7cc(Cl)ccc76)[C@H]5c5cccc(Cl)c5F)cc4)CCO3)c21` (stereo partly shown) [I-47], for which the IC50 was 50 to 100 nM. On to `Cn1c(=O)n(C2CCC(=O)NC2=O)c2ccc(C#CCCNC(=O)c3ccc(NC(=O)[C@@H]4NC5(CCCCC5)[C@@]5(C(=O)Nc6cc(Cl)ccc65)[C@H]4c4cccc(Cl)c4F)cc3)cc21` (stereo partly shown) [I-48], for which the IC50 was under 50 nM. The compound `Cn1c(=O)n(C2CCC(=O)NC2=O)c2cccc(CN3CCC(OC4CCN(C(=O)c5ccc(NC(=O)[C@@H]6NC7(CCCCC7)[C@@]7(C(=O)Nc8cc(Cl)ccc87)[C@H]6c6cccc(Cl)c6F)cc5)CC4)CC3)c21` (stereo partly shown) [I-49] returned an IC50 of under 50 nM.

With `Cn1c(=O)n(C2CCC(=O)NC2=O)c2cccc(CCCC(=O)N3CCN(C(=O)c4ccc(NC(=O)[C@@H]5NC6(CCCCC6)[C@@]6(C(=O)Nc7cc(Cl)ccc76)[C@H]5c5cccc(Cl)c5F)cc4)CC3)c21` (stereo partly shown) [I-50], the IC50 was under 50 nM. The compound `Cn1c(=O)n(C2CCC(=O)NC2=O)c2cccc(C#CCCCNC(=O)c3ccc(NC(=O)[C@@H]4NC5(CCCCC5)[C@@]5(C(=O)Nc6cc(Cl)ccc65)[C@H]4c4cccc(Cl)c4F)cc3)c21` (stereo partly shown) [I-51] gave a half-inhibitory concentration (IC50) of under 50 nM. Consider `CN(CCCOCCCc1cccc2c1n(C)c(=O)n2C1CCC(=O)NC1=O)C(=O)c1ccc(NC(=O)[C@@H]2NC3(CCCCC3)[C@@]3(C(=O)Nc4cc(Cl)ccc43)[C@H]2c2cccc(Cl)c2F)cc1` (stereo partly shown) [I-52], for which the half-maximal inhibitory concentration (IC50) was under 50 nM. With `Cn1c(=O)n(C2CCC(=O)NC2=O)c2cccc(CCC3CC4(CCN(C(=O)c5ccc(NC(=O)[C@@H]6NC7(CCCCC7)[C@@]7(C(=O)Nc8cc(Cl)ccc87)[C@H]6c6cccc(Cl)c6F)cc5)CC4)C3)c21` (stereo partly shown) [I-53] the figure was 50 to 100 nM; with `O=C1CCC(n2c(=O)oc3c(CCCOC4CCN(C(=O)c5ccc(NC(=O)[C@@H]6NC7(CCCCC7)[C@@]7(C(=O)Nc8cc(Cl)ccc87)[C@H]6c6cccc(Cl)c6F)cc5)CC4)cccc32)C(=O)N1` (stereo partly shown) [I-54], 50 to 100 nM; with `Cn1c(=O)n(C2CCC(=O)NC2=O)c2cccc(N3CCC4(CCN(C(=O)c5ccc(NC(=O)[C@@H]6NC7(CCCCC7)[C@@]7(C(=O)Nc8cc(Cl)ccc87)[C@H]6c6cccc(Cl)c6F)cc5)CC4)CC3)c21` (stereo partly shown) [I-55], 50 to 100 nM.

For `CN(C[C@@H]1CN(CC#Cc2ccc3c(c2)n(C)c(=O)n3C2CCC(=O)NC2=O)CCO1)C(=O)c1ccc(NC(=O)[C@@H]2NC3(CCCCC3)[C@@]3(C(=O)Nc4cc(Cl)ccc43)[C@H]2c2cccc(Cl)c2F)cc1` (stereo partly shown) [I-56], the IC50 was under 50 nM.

`O=C1CCC(n2c(=O)oc3cc(CCCOCCOCCNC(=O)c4ccc(NC(=O)[C@@H]5NC6(CCCCC6)[C@@]6(C(=O)Nc7cc(Cl)ccc76)[C@H]5c5cccc(Cl)c5F)cc4)ccc32)C(=O)N1` (stereo partly shown) [I-57] showed an IC50 of under 50 nM. With `Cn1c(=O)n(C2CCC(=O)NC2=O)c2cccc(C3CCN(C(=O)c4ccc(NC(=O)[C@@H]5NC6(CCCCC6)[C@@]6(C(=O)Nc7cc(Cl)ccc76)[C@H]5c5cccc(Cl)c5F)cc4)CC3)c21` (stereo partly shown) [I-58] the figure was under 50 nM; with `Cn1c(=O)n(C2CCC(=O)NC2=O)c2cccc(NCC3CC4(C3)CN(C(=O)c3ccc(NC(=O)[C@@H]5NC6(CCCCC6)[C@@]6(C(=O)Nc7cc(Cl)ccc76)[C@H]5c5cccc(Cl)c5F)cc3)C4)c21` (stereo partly shown) [I-59], under 50 nM. In turn, `Cn1c(=O)n(C2CCC(=O)NC2=O)c2cccc(C#CCN3CCC4(CC3)CN(C(=O)c3ccc(NC(=O)[C@@H]5NC6(CCCCC6)[C@@]6(C(=O)Nc7cc(Cl)ccc76)[C@H]5c5cccc(Cl)c5F)cc3)C4)c21` (stereo partly shown) [I-60] gave an IC50 of under 50 nM. For the compound `Cn1c(=O)n(C2CCC(=O)NC2=O)c2cccc(CCN3CC4(CCN(C(=O)c5ccc(NC(=O)[C@@H]6NC7(CCCCC7)[C@@]7(C(=O)Nc8cc(Cl)ccc87)[C@H]6c6cccc(Cl)c6F)cc5)CC4)C3)c21` (stereo partly shown) [I-61], the IC50 was under 50 nM.

`CN(CCC#Cc1cccc2c1n(C)c(=O)n2C1CCC(=O)NC1=O)C(=O)c1ccc(NC(=O)[C@@H]2NC3(CCCCC3)[C@@]3(C(=O)Nc4cc(Cl)ccc43)[C@H]2c2cccc(Cl)c2F)cc1` (stereo partly shown) [I-62] returned an IC50 of 50 to 100 nM.

Compound `CN(C(=O)c1ccc(NC(=O)[C@@H]2NC3(CCCCC3)[C@@]3(C(=O)Nc4cc(Cl)ccc43)[C@H]2c2cccc(Cl)c2F)cc1)C1CCN(Cc2cccc3c2n(C)c(=O)n3C2CCC(=O)NC2=O)CC1` (stereo partly shown) [I-63] showed a half-maximal inhibitory concentration (IC50) of under 50 nM. On to `Cn1c(=O)n(C2CCC(=O)NC2=O)c2cccc(CCCOC3CCN(C(=O)c4ccc(NC(=O)[C@@H]5NC6(CCCCC6)[C@@]6(C(=O)Nc7cc(Cl)ccc76)[C@H]5c5cccc(Cl)c5F)cc4)CC3)c21` (stereo partly shown) [I-64], for which the IC50 is under 50 nM. Turning to `Cn1c(=O)n(C2CCC(=O)NC2=O)c2cccc(N3CCC4(CC3)CN(C(=O)c3ccc(NC(=O)[C@@H]5NC6(CCCCC6)[C@@]6(C(=O)Nc7cc(Cl)ccc76)[C@H]5c5cccc(Cl)c5F)cc3)C4)c21` (stereo partly shown) [I-65], the half-maximal inhibitory concentration (IC50) was under 50 nM. With `CN(CCCCCc1ccc2c(c1)n(C)c(=O)n2C1CCC(=O)NC1=O)C[C@H]1CC[C@H](NC(=O)[C@@H]2NC3(CCC(C)(C)CC3)[C@@]3(C(=O)Nc4cc(Cl)ccc43)[C@H]2c2cccc(Cl)c2F)CC1` (stereo partly shown) [I-66] the figure was under 50 nM; with `Cn1c(=O)n(C2CCC(=O)NC2=O)c2ccc(CCCCCNC(=O)[C@H]3CC[C@H](NC(=O)[C@@H]4NC5(CCCCC5)[C@@]5(C(=O)Nc6cc(Cl)ccc65)[C@H]4c4cccc(Cl)c4F)CC3)cc21` (stereo partly drawn) [I-67, (3′R,4'S,5′R)-6″-chloro-4′-(3-chloro-2-fluorophenyl)-N-((1r,4R)-4-((5-(1-(2,6-dioxopiperidin-3-yl)-3-methyl-2-oxo-2,3-dihydro-1H-benzo[d]imidazol-5-yl)pentyl)carbamoyl)cyclohexyl)-2″-oxodispiro[cyclohexane-1,2′-pyrrolidine-3′,3″-indoline]-5′-carboxamide], under 50 nM; with `Cn1c(=O)n(C2CCC(=O)NC2=O)c2ccc(C#CC3CCN(C[C@H]4CC[C@H](NC(=O)[C@@H]5NC6(CCC(C)(C)CC6)[C@@]6(C(=O)Nc7cc(Cl)ccc76)[C@H]5c5cccc(Cl)c5F)CC4)CC3)cc21` (stereo partly shown) [I-68], under 50 nM. `Cn1c(=O)n(C2CCC(=O)NC2=O)c2ccc(C#CC3CCN(C(=O)[C@H]4CC[C@H](NC(=O)[C@@H]5NC6(CCCCC6)[C@@]6(C(=O)Nc7cc(Cl)ccc76)[C@H]5c5cccc(Cl)c5F)CC4)CC3)cc21` (stereo partly shown) [I-69]: the IC50 was under 50 nM.

The compound `Cn1c(=O)n(C2CCC(=O)NC2=O)c2ccc(C#CC3CCN(C[C@H]4CC[C@H](NC(=O)[C@@H]5NC6(CCCCC6)[C@@]6(C(=O)Nc7cc(Cl)ccc76)[C@H]5c5cccc(Cl)c5F)CC4)CC3)cc21` (stereo partly shown) [I-70] returned an IC50 of under 50 nM. For `Cn1c(=O)n(C2CCC(=O)NC2=O)c2ccc(C#CC3CCN(C(=O)[C@H]4CC[C@H](NC(=O)[C@@H]5NC6(CCC(C)(C)CC6)[C@@]6(C(=O)Nc7cc(Cl)ccc76)[C@H]5c5cccc(Cl)c5F)CC4)CC3)cc21` (stereo partly shown) [I-71], the IC50 was under 50 nM. With `Cn1c(=O)n(C2CCC(=O)NC2=O)c2ccc(CCCCCNC(=O)[C@H]3CC[C@H](NC(=O)[C@@H]4NC5(CCC(C)(C)CC5)[C@@]5(C(=O)Nc6cc(Cl)ccc65)[C@H]4c4cccc(Cl)c4F)CC3)cc21` (stereo partly shown) [I-72], the concentration for half-maximal inhibition (IC50) is under 50 nM. In turn, `Cn1c(=O)n(C2CCC(=O)NC2=O)c2ccc(CCCCCNC(=O)c3ccc(NC(=O)[C@@H]4NC5(CCC(C)(C)CC5)[C@@]5(C(=O)Nc6cc(Cl)ccc65)[C@H]4c4cccc(Cl)c4F)cc3)cc21` (stereo partly drawn) [I-74, (3′R,4'S,5′R)-6″-chloro-4′-(3-chloro-2-fluorophenyl)-N-(4-((5-(1-(2,6-dioxopiperidin-3-yl)-3-methyl-2-oxo-2,3-dihydro-1H-benzo[d]imidazol-5-yl)pentyl)carbamoyl)phenyl)-4,4-dimethyl-2″-oxodispiro[cyclohexane-1,2′-pyrrolidine-3′,3″-indoline]-5′-carboxamide] displayed an IC50 of under 50 nM. The compound `Cn1c(=O)n(C2CCC(=O)NC2=O)c2ccc(C#CC3CCN(C(=O)C45CCC(NC(=O)[C@@H]6NC7(CCCCC7)[C@@]7(C(=O)Nc8cc(Cl)ccc87)[C@H]6c6cccc(Cl)c6F)(CC4)CC5)CC3)cc21` (stereo partly shown) [I-75] returned an IC50 of under 50 nM. With `Cn1c(=O)n(C2CCC(=O)NC2=O)c2ccc(C#CC3CCN(C(=O)c4ccc(NC(=O)[C@@H]5NC6(CCC(C)(C)CC6)[C@@]6(C(=O)Nc7cc(Cl)ccc76)[C@H]5c5cccc(Cl)c5F)cc4)CC3)cc21` (stereo partly shown) [I-76], the IC50 was in the range of 100 to 500 nM. With `CN1[C@@H](C(=O)Nc2ccc(CN3CCC(CCc4ccc5c(c4)n(C)c(=O)n5C4CCC(=O)NC4=O)CC3)cc2)[C@H](c2cccc(Cl)c2F)[C@]2(C(=O)Nc3cc(Cl)ccc32)C12CCCCC2` (stereo partly shown) [I-77] the figure was under 50 nM. Take `Cn1c(=O)n(C2CCC(=O)NC2=O)c2ccc(CCCCCNC(=O)c3cccc(NC(=O)[C@@H]4NC5(CCCCC5)[C@@]5(C(=O)Nc6cc(Cl)ccc65)[C@H]4c4cccc(Cl)c4F)c3)cc21` (stereo partly shown) [I-78]: the IC50 is under 50 nM.

The values above are taken from patent publication US11932624B2, “MDM2 degraders and uses thereof” (Kymera Therapeutics, Inc., priority 2020, dated 2024).
